Values joined by “and” are separate entries in the source; they are usually repeats but may differ in a detail not shown here. Equal values may be shown once. Read-outs that look alike come from different tables or passages of the source.
How the values were obtained:
human α-thrombin = human α-thrombin (Homo sapiens, UniProt P00734); experiment: Protease inhibition, Ki for human α-thrombin (fluorogenic substrate Z-Gly-Gly-Arg-AMC); type: biochemical; conditions: for Slope normalized to DMSO (proteolytic substrate cleavage over time): replicates R1-R3
Summary of the method: (§1)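 Ki values come from Cheng–Prusoff correction of IC50, itself fitted by four-parameter logistic regression of activity versus a no-peptide control. Assays used 2 nM human or 3 nM rat thrombin, 50 μM Z-Gly-Gly-Arg-AMC, 30 min kinetic fluorescence at 25 °C.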

rat α-thrombin = biological target: T1, rat α-thrombin (Rattus norvegicus, UniProt P18292); experiment: Protease inhibition, Ki for rat α-thrombin (fluorogenic substrate Z-Gly-Gly-Arg-AMC); type: biochemical; conditions: for Slope normalized to DMSO (proteolytic substrate cleavage over time): replicates R1-R3
T1 construct: rat α-thrombin (Molecular Innovations) were used at final concentrations of 2 nM and 3 nM; purchased Molecular Innovations
Summary of the method: as §1

porcine pepsin = biological target: T2, porcine pepsin (Sus scrofa, UniProt P00791); experiment: Peptide stability in simulated gastric fluid (SGF); type: in vitro ADME
T2 construct: 0.32 g of porcine pepsin (Sigma-Aldrich, P7125) was dissolved under gentle agitation; purchased Sigma-Aldrich P7125
T2 sequence (P00791 60-385): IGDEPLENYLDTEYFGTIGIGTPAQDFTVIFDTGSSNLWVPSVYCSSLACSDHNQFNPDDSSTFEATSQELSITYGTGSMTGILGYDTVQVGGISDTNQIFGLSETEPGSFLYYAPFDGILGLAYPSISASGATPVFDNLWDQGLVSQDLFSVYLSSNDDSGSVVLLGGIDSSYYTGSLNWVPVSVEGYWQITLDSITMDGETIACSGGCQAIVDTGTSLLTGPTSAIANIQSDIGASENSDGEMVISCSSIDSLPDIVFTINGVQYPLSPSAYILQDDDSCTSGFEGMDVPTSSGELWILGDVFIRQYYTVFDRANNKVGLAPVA
Summary of the method: (§2)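 Peptide from a 1 mM DMSO stock was added to fluid pre-warmed at 37 °C. SGF was pH 1.2 NaCl with porcine pepsin (0.32 g per 100 ml), and SIF was pH 6.8 potassium phosphate with porcine pancreatin (1 g per 100 ml). Supernatant peptide was quantified by LC–MS, with residual expressed as T1/T0.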

[1] = Peptide stability in simulated intestinal fluid (SIF); type: in vitro ADME, porcine; conditions: simulated gi fluid; 8 h, 37 °C, pH 6.8; read-out: Proteolytic stability: SIF (8 h) % remaining
Summary of the method: as §2

porcine pancreatin = experiment: as above; type: in vitro ADME; conditions: after 8 h vs 0 h (TIC)
Summary of the method: as §2

[2] = Passive artificial membrane permeability (PAMPA)

O=C1C[C@H]2CCCN2C(=O)[C@H](Cc2ccccc2)NC(=O)[C@@H](NC(=O)c2ccc(Cl)s2)CSC/C=C/CSCCN1 [peptide 32]
Slope normalized to DMSO (proteolytic substrate cleavage over time) (human α-thrombin; human alpha thrombin, peptide 1.02E-03 uM): 91.7 and 75.0 and 84.5 | Slope normalized to DMSO (proteolytic substrate cleavage over time) (human α-thrombin; human alpha thrombin, peptide 1.04E+00 uM): 9.7 and 14.2 and 12.5 | Slope normalized to DMSO (proteolytic substrate cleavage over time) (human α-thrombin; human alpha thrombin, peptide 1.27E-04 uM): 92.1 and 89.4 and 95.4 | Slope normalized to DMSO (proteolytic substrate cleavage over time) (human α-thrombin; human alpha thrombin, peptide 1.30E-01 uM): 16.4 and 22.7 and 18.5 | Slope normalized to DMSO (proteolytic substrate cleavage over time) (human α-thrombin; human alpha thrombin, peptide 1.59E-05 uM): 104.8 and 95.5 and 101.0 | Slope normalized to DMSO (proteolytic substrate cleavage over time) (human α-thrombin; human alpha thrombin, peptide 1.63E-02 uM): 54.1 and 48.1 and 57.3 | Slope normalized to DMSO (proteolytic substrate cleavage over time) (human α-thrombin; human alpha thrombin, peptide 1.67E+01 uM): 4.0 and 6.4 and 1.8 | Slope normalized to DMSO (proteolytic substrate cleavage over time) (human α-thrombin; human alpha thrombin, peptide 2.03E-03 uM): 79.8 and 80.8 and 68.0 | Slope normalized to DMSO (proteolytic substrate cleavage over time) (human α-thrombin; human alpha thrombin, peptide 2.08E+00 uM): 5.1 and 8.3 and -0.433 | Slope normalized to DMSO (proteolytic substrate cleavage over time) (human α-thrombin; human alpha thrombin, peptide 2.54E-04 uM): 93.1 and 85.9 and 92.0 | Slope normalized to DMSO (proteolytic substrate cleavage over time) (human α-thrombin; human alpha thrombin, peptide 2.60E-01 uM): 11.6 and 16.8 and 13.0 | Slope normalized to DMSO (proteolytic substrate cleavage over time) (human α-thrombin; human alpha thrombin, peptide 3.18E-05 uM): 103.7 and 94.2 and 96.3 | Slope normalized to DMSO (proteolytic substrate cleavage over time) (human α-thrombin; human alpha thrombin, peptide 3.26E-02 uM): 46.3 and 39.7 and 47.4 | Slope normalized to DMSO (proteolytic substrate cleavage over time) (human α-thrombin; human alpha thrombin, peptide 3.33E+01 uM): -4.9 and 8.0 and -5.2 | Slope normalized to DMSO (proteolytic substrate cleavage over time) (human α-thrombin; human alpha thrombin, peptide 4.07E-03 uM): 68.4 and 49.8 and 67.1 | Slope normalized to DMSO (proteolytic substrate cleavage over time) (human α-thrombin; human alpha thrombin, peptide 4.17E+00 uM): 7.1 and 16.4 and 0.5 | Slope normalized to DMSO (proteolytic substrate cleavage over time) (human α-thrombin; human alpha thrombin, peptide 5.09E-04 uM): 91.3 and 86.2 and 83.7 | Slope normalized to DMSO (proteolytic substrate cleavage over time) (human α-thrombin; human alpha thrombin, peptide 5.21E-01 uM): 9.0 and 17.4 and 10.1 | Slope normalized to DMSO (proteolytic substrate cleavage over time) (human α-thrombin; human alpha thrombin, peptide 6.36E-05 uM): 103.6 and 90.9 and 101.0 | Slope normalized to DMSO (proteolytic substrate cleavage over time) (human α-thrombin; human alpha thrombin, peptide 6.51E-02 uM): 26.8 and 23.7 and 23.8 | Slope normalized to DMSO (proteolytic substrate cleavage over time) (human α-thrombin; human alpha thrombin, peptide 6.67E+01 uM): 5.5 and 8.8 and 5.2 | Slope normalized to DMSO (proteolytic substrate cleavage over time) (human α-thrombin; human alpha thrombin, peptide 7.95E-06 uM): 105.4 and 96.7 and 100.1 | Slope normalized to DMSO (proteolytic substrate cleavage over time) (human α-thrombin; human alpha thrombin, peptide 8.14E-03 uM): 56.5 and 45.5 and 52.6 | Slope normalized to DMSO (proteolytic substrate cleavage over time) (human α-thrombin; human alpha thrombin, peptide 8.33E+00 uM): -1.1 and 9.3 and 3.5 | IC50 (human α-thrombin; human alpha thrombin, single replicates R1-R3, read-out: IC50, human alpha thrombin inhibition): 13.6 nM and 7.3 nM and 13.8 nM | Ki (human α-thrombin; human alpha thrombin, single replicates R1-R3, read-out: Ki, human alpha thrombin inhibition): 10.4 nM (2×) and 5.65 nM (2×) and 10.6 nM (2×) | Ki (human α-thrombin; purified peptide, mean and s.d. of three measurements, read-out: Ki human α-thrombin): 8.9 ± 2.3 nM | Ki (rat α-thrombin; purified peptide, mean and s.d. of three measurements, read-out: Ki rat α-thrombin): 1.1 ± 0.41 nM | Slope normalized to DMSO (proteolytic substrate cleavage over time) (rat α-thrombin; rat alpha thrombin, peptide 1.02E-03 uM): 71.6 and 67.2 and 58.0 | Slope normalized to DMSO (proteolytic substrate cleavage over time) (rat α-thrombin; rat alpha thrombin, peptide 1.04E+00 uM): 6.5 and 8.7 and 6.4 | Slope normalized to DMSO (proteolytic substrate cleavage over time) (rat α-thrombin; rat alpha thrombin, peptide 1.27E-04 uM): 89.6 and 85.7 and 79.9 | Slope normalized to DMSO (proteolytic substrate cleavage over time) (rat α-thrombin; rat alpha thrombin, peptide 1.30E-01 uM): 12.8 and 13.3 and 8.9 | Slope normalized to DMSO (proteolytic substrate cleavage over time) (rat α-thrombin; rat alpha thrombin, peptide 1.59E-05 uM): 102.5 and 122.8 and 94.2 | Slope normalized to DMSO (proteolytic substrate cleavage over time) (rat α-thrombin; rat alpha thrombin, peptide 1.63E-02 uM): 35.3 and 31.4 and 27.2 | Slope normalized to DMSO (proteolytic substrate cleavage over time) (rat α-thrombin; rat alpha thrombin, peptide 1.67E+01 uM): 4.8 and 5.1 and 4.2 | Slope normalized to DMSO (proteolytic substrate cleavage over time) (rat α-thrombin; rat alpha thrombin, peptide 2.03E-03 uM): 56.5 and 52.5 and 45.1 | Slope normalized to DMSO (proteolytic substrate cleavage over time) (rat α-thrombin; rat alpha thrombin, peptide 2.08E+00 uM): 5.0 and 7.7 and 6.7 | Slope normalized to DMSO (proteolytic substrate cleavage over time) (rat α-thrombin; rat alpha thrombin, peptide 2.54E-04 uM): 83.1 and 80.0 and 103.6 | Slope normalized to DMSO (proteolytic substrate cleavage over time) (rat α-thrombin; rat alpha thrombin, peptide 2.60E-01 uM): 12.7 and 11.2 and 6.9 | Slope normalized to DMSO (proteolytic substrate cleavage over time) (rat α-thrombin; rat alpha thrombin, peptide 3.18E-05 uM): 95.8 and 95.0 and 90.9 | Slope normalized to DMSO (proteolytic substrate cleavage over time) (rat α-thrombin; rat alpha thrombin, peptide 3.26E-02 uM): 29.1 and 26.7 and 19.1 | Slope normalized to DMSO (proteolytic substrate cleavage over time) (rat α-thrombin; rat alpha thrombin, peptide 3.33E+01 uM): 5.0 and 6.0 and 4.0 | Slope normalized to DMSO (proteolytic substrate cleavage over time) (rat α-thrombin; rat alpha thrombin, peptide 4.07E-03 uM): 51.9 and 49.0 and 39.9 | Slope normalized to DMSO (proteolytic substrate cleavage over time) (rat α-thrombin; rat alpha thrombin, peptide 4.17E+00 uM): 5.5 and 6.1 and 4.2 | Slope normalized to DMSO (proteolytic substrate cleavage over time) (rat α-thrombin; rat alpha thrombin, peptide 5.09E-04 uM): 76.1 and 71.5 and 67.7 | Slope normalized to DMSO (proteolytic substrate cleavage over time) (rat α-thrombin; rat alpha thrombin, peptide 5.21E-01 uM): 9.5 and 9.3 and 6.7 | Slope normalized to DMSO (proteolytic substrate cleavage over time) (rat α-thrombin; rat alpha thrombin, peptide 6.36E-05 uM): 93.9 and 94.0 and 87.7 | Slope normalized to DMSO (proteolytic substrate cleavage over time) (rat α-thrombin; rat alpha thrombin, peptide 6.51E-02 uM): 18.8 and 16.8 and 12.8 | Slope normalized to DMSO (proteolytic substrate cleavage over time) (rat α-thrombin; rat alpha thrombin, peptide 6.67E+01 uM): 5.5 and 6.5 and 3.1 | Slope normalized to DMSO (proteolytic substrate cleavage over time) (rat α-thrombin; rat alpha thrombin, peptide 7.95E-06 uM): 102.1 and 101.6 and 99.0 | Slope normalized to DMSO (proteolytic substrate cleavage over time) (rat α-thrombin; rat alpha thrombin, peptide 8.14E-03 uM): 40.8 and 35.1 and 27.1 | Slope normalized to DMSO (proteolytic substrate cleavage over time) (rat α-thrombin; rat alpha thrombin, peptide 8.33E+00 uM): 4.4 and 7.1 and 3.1 | IC50 (rat α-thrombin; rat alpha thrombin, single replicates R1-R3, read-out: IC50, rat alpha thrombin inhibition): 2.94 nM and 1.12 nM and 1.9 nM | Ki (rat α-thrombin; rat alpha thrombin, single replicates R1-R3, read-out: Ki, rat alpha thrombin inhibition): 1.63 nM (2×) and 0.618 nM (2×) and 1.05 nM | SGF stability, Residual peptide Average (porcine pepsin; after 8 h vs 0 h (TIC), average of R1-R3): 106.85 | SGF stability, Residual peptide (porcine pepsin; after 8 h vs 0 h (TIC), single replicates R1-R3): 117.40 and 115.58 and 87.56 | remaining at 8 h (porcine pepsin; simulated gi fluid, 8 h, 37 °C, pH 1.2, read-out: Proteolytic stability: SGF (8 h) % remaining): 107 ± 17% | remaining at 8 h [1]: 82 ± 10% | SIF stability, Residual peptide Average (porcine pancreatin; average of R1-R3): 82.44 | SIF stability, Residual peptide (porcine pancreatin; single replicates R1-R3): 91.81 and 71.29 and 84.22 | PAMPA permeability: % permeability ([2]; 50 μM, 12–18 h, acceptor concentration relative to equilibrium): 47 ± 12% | Papp at 50 μM ([2]; PAMPA, pH 7.4): 6.17 ×10⁻⁶ cm/s | Permeability% Average ([2]; top well sample vs theoretical equilibrium sample (TIC), average of R1-R3): 46.9% | Permeability% ([2]; top well sample vs theoretical equilibrium sample (TIC), single replicates R1-R3): 48.47% and 34.58% and 57.51%

Reference: article PMC11062899, “De novo development of small cyclic peptides that are orally bioavailable” (Nature Chemical Biology, 2023)
